| SMILES | melting point |
| --- | --- |
| CCOC(=O)C1(C(=O)OCC)CC(c2ccccc2[N+](=O)[O-])C(O)N1C=O (configuration not stated) | 109 to 111 °C |
| CC(C)Cn1c(=O)n(C)c(=O)c2c(SC(C)C)c(C(=O)c3nc4ccccc4n3C)sc21 | 166 to 169 °C |
| O=C1Cn2nc(-c3ccc(F)cc3)c(-c3ccncc3)c2N1 | > 250 °C |
| CNC(=O)C1=CC(CF)(CF)Oc2ccc(Cl)cc21 | 175 to 176 °C |
| CCN(CC)C(=O)c1cc2ccccc2c(-c2ccc(C)cc2)n1 | 113 °C |
| Cc1cc(Cl)c2[nH]ncc2n1 | 218 °C |
| CN(C)CCNC(=O)c1nnc(-c2ccccc2)cc1-c1cccc([N+](=O)[O-])c1 | 157 to 158 °C |
| Cc1cccc(NC(=O)NC2CN(Cc3ccccc3)c3ccccc3N(CC(=O)c3ccccc3C)C2=O)c1 (configuration not stated) | 169 to 172 °C |
| CC(=O)OCC(OC(C)=O)C(OC(C)=O)C(C=O)OC(C)=O (configuration not stated) | 161 to 162 °C |
| CCN(CC)C(=O)Sc1cc(OC)c(OC)cc1C(=O)c1ccccc1 | 114 to 116 °C |
| Sc1ccc2c(c1)Sc1ccc(Cl)cc1N2 | 230 to 232 °C |
| Cc1cc([N+](=O)[O-])ccc1C(=O)N=CN(C)C | 118 to 121 °C |
| Fc1ccc(C(=Cc2ccccc2)C(F)(F)F)cc1 | 43 to 45 °C |
| CCOC(=O)C1C=NC(C)=C(c2ccccc2)C1=O (configuration not stated) | 178 to 180 °C |
| c1ccc(Nc2nsc3ccccc23)nc1 | 247 to 249 °C |
| O=C1c2cscc2Nc2ccccc2N1C1C=CCCC1 (configuration not stated) | 147 to 149 °C |
| CC1CNc2c(ccc(NC3=NCCN3)c2Br)N1 (single isomer, unassigned; (+)) | 203 to 205 °C |
| CCCCc1cc2cc([N+](=O)[O-])ccc2n1C | 77 °C |
| CN1C(=O)CN(c2cccc(Br)c2)NC1=O | 165 to 166 °C |
| CCn1c(=O)c2[nH]c(/C=C/c3cccc(Oc4ccccc4)c3)nc2n(CC)c1=O | 241 to 243 °C |
| COc1ccc(C(=O)Nc2ccccc2)cc1NS(=O)(=O)c1cccc2c(N(C)C)cccc12 | 231 to 232 °C |
| COC(=O)C1=NNC(C)=C(C(=O)OC)C1c1ccccc1 (configuration not stated) | 187 °C |
| CCSc1ncc(S(N)(=O)=O)s1 | 95 to 96 °C |
| CCOC(=O)c1c(N(Cc2c(F)cccc2F)C(=O)OCC)sc(-c2ccc([N+](=O)[O-])cc2)c1CBr | 105 to 108 °C |
| CN1CCN(C2=C3CN(C)CC34CC(=CC#N)C=CC4=NC=C2)CC1 (configuration not stated) | 178 to 180 °C |
| CCC(=O)NCC[C@@H]1CCc2ccc(O)c(CCO)c21 | 144 to 146 °C |

| SMILES | melting point |
| --- | --- |
| CN(C(=O)Nc1cccnc1)c1ccc2c(ccn2C)c1 | 168 to 170 °C |
| CC(C)(C)C(=O)C(N)=O | 69 to 70 °C |
| Cc1ccc(Oc2noc(=O)n2S(=O)(=O)c2c(C)noc2C)c(C)c1 | 135 to 136 °C |
| CCNCC1CCN(c2c(F)cc3c(=O)c(C(=O)O)cn(C4(C)CC4)c3c2F)C1 (configuration not stated) | 261 to 263 °C |
| O=C(Oc1ccc(Oc2ccccc2)cc1)N1CCC(CO)CC1 | 71 to 74 °C |
| CCC(C)(C)c1ccc2nc(-c3ccc([N+](=O)[O-])cc3)oc2c1 | 147 to 148 °C |
| CCCCCC1=CCC(c2cc(F)cc(F)c2)C=C1 (configuration not stated) | 31 °C |
| CC(=O)Nc1ccc(C=CC2=NNC(=O)CC2C)cc1 (configuration not stated) | 206 to 207 °C |
| O=C1OC(COc2ccccc2)CN1Sc1ccc(Cl)cc1 (configuration not stated) | 98 to 101 °C |
| CN1CCC(Oc2ccc3ccc(N)nc3n2)CC1 | 174 °C |
| BrCC(Br)c1ccc(-c2ccccc2)cc1 (configuration not stated) | 79 to 81 °C |
| COC(=O)c1ccc2cc(OC)ccc2n1 | 129 °C |
| O=C(O)C(Cl)C(=O)CCl (configuration not stated) | 53 to 54 °C |
| COc1cc(C2=C(c3cn(CCCNC(=O)C(N)CC(C)C)c4ccccc34)C(=O)NC2=O)cc(OC)c1OC (configuration not stated) | 172 to 173 °C |
| CCOC(=O)C(NC(=O)CCl)c1cscn1 (configuration not stated) | 145 to 146 °C |
| CC(Oc1ccc(C2CCOCC2)cc1)C(=O)O (configuration not stated) | 156 °C |
| COC(=O)c1cc(Br)cc([N+](=O)[O-])c1SCc1ccccc1 | 65 to 66 °C |
| CC#CCn1nnc2cc3c(=O)n(C(C)Cn4nccn4)nnc3cc2c1=O (configuration not stated) | 154 to 156 °C |
| Cc1ccc(S(=O)(=O)N2c3ccc(Cl)cc3C(O)(c3ccccc3Cl)C2C(=O)N(C)C)cc1 (configuration not stated) | 220 to 221 °C |
| CC(COc1ccc(-n2cncn2)cc1)(NS(=O)(=O)Cc1ccccc1)C(N)=O (configuration not stated) | 195 to 198 °C |
| CC(C#N)(COc1ccccc1C(F)(F)F)NC(=O)c1ccc(C(=O)c2ccccc2)cc1 (configuration not stated) | 121 to 123 °C |
| CC(C)NCC(O)COc1ccc(-c2nc(C(F)(F)F)c[nH]2)cc1 (configuration not stated) | 173 to 174 °C |
| CC(C)(C)C(=O)c1ccc(C2(C)OCCO2)cc1 | 75 to 82 °C |
| O=C(O)c1cn(-c2ccc(F)cc2)c2cc(N3CCNC(c4ccco4)C3)c(F)cc2c1=O (configuration not stated) | 242 °C |
| CN(C(=O)c1cc(=O)n(C)c2ccc(C(=O)c3ccc(Cl)cc3)cc12)c1cccc(Cl)c1 | 184 °C |
| CC(C)(C)OC(=O)[C@@H]1CCCN1C(=O)CCS | 57 to 58 °C |

| SMILES | melting point |
| --- | --- |
| CC(C)(C)OC(=O)Nn1ccc2ccccc21 | 112 to 116 °C |
| O=C(O)C(=O)C=Cc1ccccc1F | 100 to 102 °C |
| CCOC(=O)c1ccc(OCc2ccccc2)c(OCc2ccccc2)c1 | 68 to 69 °C |
| CCN(CC)c1ccc(C(c2ccc(N(C)C)cc2C(=O)O)c2ccc(N(C)C)cc2N(C)C)cc1 (configuration not stated) | 128 to 130 °C |
| COc1nc(N2CCOCC2)c(Cl)nc1NS(=O)(=O)c1cccc(Cl)c1Cl | 150 to 151 °C |
| Nc1ccc(-c2ccncc2)cc1 | 232 to 234 °C |
| COc1cc(NC(=O)CCCCCN2CCN(C3CCCCC3)CC2)c2nccc(C)c2c1 | 109 to 110 °C |
| COc1nc(C)cc(-n2cncn2)n1 | 98 to 98.5 °C |
| C=CC1(O)CCC2C3CCC4=CC(=O)CCC4C3CCC21CC (configuration not stated) | 108 to 111 °C |
| CC(=O)OC1CCC2(C)C3=C(CCC2C1)C1CCC(C(C)=O)C1(C)CC3=O (configuration not stated) | 169 to 172 °C |
| Cc1ccc(C(=O)n2c3c(c4ccccc42)CC(C(=O)O)(C(=O)O)CC3)cc1 | 190 to 195 °C |
| CCN(CC)CCNC(=O)N1CCCC(S(=O)(=O)c2ccc(C)cc2)C1 (configuration not stated) | 116 to 118 °C |
| C[C@@H](N1CC(=O)N(c2ccc(OCC(F)(F)C(F)F)cc2)CC1=O)[C@@]1(c2ccc(F)cc2F)CO1 | 155 to 156 °C |
| O=C(O)[C@@H]1CC2(CN1C(=O)CP(=O)(O)CCCCc1ccccc1)SCCS2 | 106 to 107 °C |
| CC(C)(C)NCC(O)COc1ccccc1C1=NNC(=O)CC1 (configuration not stated) | 138 to 141 °C |
| CC(C)C[C@@H](NS(=O)(=O)c1ccc(N2CCC(c3ccccc3)CC2)cc1)C(=O)O | 163 to 165 °C |
| CCOC(=O)CC(C(=O)c1ccc(OC)cc1)c1ccc(OC)c(F)c1 (configuration not stated) | 117 to 118 °C |
| CS(=O)(=O)c1ccc(-n2cc(CO)nc2-c2ccc(Cl)cc2)cc1 | 205 to 208 °C |
| OCc1ccccc1NCc1cc2c(cc1O)CCCO2 | 141 to 142 °C |
| CC(C)(C)c1cc2c(c(C(C)(C)C)c1)OCC(/C=C/C=C/C=C/C(=O)O)=C2 | 166 to 168 °C |
| O=C(c1ccc([N+](=O)[O-])cc1)c1c(Cl)cc(O)cc1Cl | 118 to 120 °C |
| CC(=O)N[C@@H](C)COc1ccc2nc(-c3cc(F)c(OCC4CC4)c(F)c3)oc2c1F | 146 to 147 °C |
| CCC1(CC)C(=O)N(CC(O)Cc2cc(C(C)C)c(O)c(C(C)C)c2)C(=O)N(CC(O)Cc2cc(C(C)C)c(O)c(C(C)C)c2)C1=O (configuration not stated) | 126 to 127 °C |
| C#Cc1ccc(C23OCC(c4ccc(F)c(F)c4)(CO2)CO3)cc1 | 204 to 205 °C |
| O=C(O)CCc1[nH]nc2c1CCCCC2 | 102 to 105 °C |
| OCCCc1cn(Cc2ccccc2)c2ccccc12 | 75 °C |

| SMILES | melting point |
| --- | --- |
| CCOCCc1cc(C)c(OCC=NO)cc1C | 66 to 70 °C |
| O=C1C2=C(CCCC2)C(=O)N1c1cccc(O)c1 | 196 to 198 °C |
| CC(O)C(C)N=[N+]([O-])c1ccc(O)cc1 (configuration not stated) | 124 to 125 °C |
| CCOC(=O)CCc1cc(CCC(N)=O)cc(Cc2ccc(F)cc2)c1 | 69 to 70 °C |
| ON=CNc1ccc(N2CCOCC2)nc1 | 172 to 174 °C |
| Cc1cc(C)c2nc(NC3CCN(CCO)CC3)n(Cc3nc(C)ccc3O)c2c1 | 177 °C |
| CC(=NO)c1cccc(NC(=O)NC2N=C(c3ccccc3F)c3cccc(C)c3N(CC(=O)N3CC4CCC(CC4)C3)C2=O)c1 (configuration not stated) | 199 to 208 °C |
| O=C(N[C@@H](Cc1ccc(O)cc1)C(=O)O)C(=Cc1ccccc1)NC(=O)C(F)(F)F | 165 to 175 °C |
| CC(C)(C)n1nnc(-c2ccc(CNc3n[nH]c4ncnc(Nc5cccc(Cl)c5)c34)cc2)n1 | 168 to 170 °C |
| C(#Cc1cc2ccccc2s1)c1cccs1 | 114 to 116 °C |
| CC(CO)C1CCC2C3CC=C4CC(O)CC(O)C4(C)C3CCC12C (configuration not stated) | 205 to 207 °C |
| Fc1ccc2ncc3ncn(-c4ccccc4F)c3c2c1 | 162 to 163 °C |
| C[Si](C)(C)CCCCOC(=O)CSc1cc(Oc2ccc(C(F)(F)F)cc2Cl)ccc1[N+](=O)[O-] | 78 to 81 °C |
| COc1cccc(C(F)(F)F)c1NS(=O)(=O)c1nc2nc(O)cc(O)n2n1 | 237 to 243 °C |
| CCN1C(=O)C(C)(C)C(=O)N(C)c2cc(CN(CCn3cc(C)c4occc4c3=O)Cc3cc(C)nn3C)ccc21 | 193 to 195 °C |
| Cc1ccc(S(=O)(=O)CCCc2c[nH]c([N+](=O)[O-])n2)cc1 | 108 to 111 °C |
| COc1ccc2c(c1)C(=O)N(c1ccc3nc(C)ncc3c1)C2 | 245 to 247 °C |
| NNC(=O)C=Cc1cc2ccccc2o1 | 173 to 174 °C |
| Cc1c(NC(=O)c2ccc(OCC3CC3)cc2)ccc2cc(CNCC3CCOCC3)[nH]c12 | 167 to 168 °C |
| FC(F)(F)c1ccc(NC2CCNCC2)nc1 | 128 °C |
| COc1ccc2c(c1)c(=O)oc1c(C(C)=O)c(O)ccc12 | 197 to 199 °C |
| CN(CCCNC(=O)c1ccccc1)CCCc1c[nH]c2ccccc12 | 73 to 74 °C |
| Cc1ccc(-c2ccc(Cl)cc2)cc1C1C(=O)COC(C)(C)C1=O (configuration not stated) | 186 to 188 °C |
| C=CC(=O)NCCCCOc1ccccc1 | 46 to 47 °C |
